From US9353082B2, “Pharmaceutical compounds” (BIAL—PORTELA & CA, S.A., priority 2008, dated 2016)

What was measured:
FAAH [1] = molecular target: T1, FAAH (Rattus norvegicus, UniProt P97612); assay: In vitro FAAH activity in rat brain membranes, 3H-AEA substrate, % of control; assay type: biochemical, Wistar rats; conditions: low value = strong inhibitor; for In Vitro FAAH activity, 100 nM: 100 nM test compound; for In Vitro 100 nM (FAAH activity, % of control): rat brain membranes, compound at 100 nM
T1 construct: Frozen brains (without cerebellum) from Wistar rats were used; from tissue; host or cells: Wistar rat brain (without cerebellum), washed membrane pellets
T1 sequence (P97612 1-579): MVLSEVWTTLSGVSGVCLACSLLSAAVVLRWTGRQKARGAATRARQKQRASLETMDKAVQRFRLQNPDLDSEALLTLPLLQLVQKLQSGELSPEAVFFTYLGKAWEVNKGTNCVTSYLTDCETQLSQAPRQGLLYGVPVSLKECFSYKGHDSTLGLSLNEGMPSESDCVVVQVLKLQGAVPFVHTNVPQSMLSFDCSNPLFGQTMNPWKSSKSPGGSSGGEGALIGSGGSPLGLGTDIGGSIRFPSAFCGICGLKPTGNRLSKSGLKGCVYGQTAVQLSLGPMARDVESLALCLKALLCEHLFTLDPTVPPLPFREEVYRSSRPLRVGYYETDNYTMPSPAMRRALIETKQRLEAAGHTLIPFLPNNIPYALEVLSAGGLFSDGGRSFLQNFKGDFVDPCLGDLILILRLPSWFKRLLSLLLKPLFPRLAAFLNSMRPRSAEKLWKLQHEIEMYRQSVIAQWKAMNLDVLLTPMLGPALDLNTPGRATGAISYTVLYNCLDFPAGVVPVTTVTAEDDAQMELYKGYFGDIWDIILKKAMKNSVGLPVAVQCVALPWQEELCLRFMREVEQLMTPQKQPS
Procedure, shortened: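 FAAH activity measured as 3H-ethanolamine released from 2 μM [3H]AEA over 10 min by rat brain membrane preparation, after 15 min 37 °C preincubation with test compound at 10 or 0.1 μM. Charcoal-separated supernatant scintillation-counted; values expressed as % of control minus no-protein blank.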

FAAH [2] = molecular target: T2, FAAH (Mus musculus, UniProt O08914); assay: In vivo FAAH inhibition after oral dosing, remaining activity in liver homogenate (LVh, peripheral tissue); design: species or system NMRI mice; conditions: liver homogenate, 3 mg/kg, 8 h after dosing; low value = strong inhibitor
T2 construct: A fragment of liver, left lung lobe and brain without cerebellum were removed; from tissue; host or cells: male NMRI mice; brain (without cerebellum) and liver homogenates
T2 sequence (O08914 1-579): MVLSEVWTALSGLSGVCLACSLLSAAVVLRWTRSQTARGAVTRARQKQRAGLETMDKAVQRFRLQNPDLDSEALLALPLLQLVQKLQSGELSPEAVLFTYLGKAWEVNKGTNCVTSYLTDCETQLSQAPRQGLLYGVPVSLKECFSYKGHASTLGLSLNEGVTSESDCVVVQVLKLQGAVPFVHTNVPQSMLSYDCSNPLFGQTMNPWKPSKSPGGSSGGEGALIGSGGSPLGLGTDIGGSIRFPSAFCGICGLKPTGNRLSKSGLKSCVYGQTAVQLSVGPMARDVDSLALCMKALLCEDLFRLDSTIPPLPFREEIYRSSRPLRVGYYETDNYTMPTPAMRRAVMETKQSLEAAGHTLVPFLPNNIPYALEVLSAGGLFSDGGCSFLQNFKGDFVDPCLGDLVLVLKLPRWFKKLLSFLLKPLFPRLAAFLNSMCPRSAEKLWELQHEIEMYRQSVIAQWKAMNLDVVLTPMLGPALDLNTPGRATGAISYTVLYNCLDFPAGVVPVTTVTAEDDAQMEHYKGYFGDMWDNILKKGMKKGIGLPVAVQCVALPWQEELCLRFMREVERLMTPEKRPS
Procedure: (§1) The in vivo test was performed according to the protocol described below. BRh indicates inhibition in central nervous tissue and LVh indicates inhibition in peripheral tissue, in this case liver.
(§2) The animals used for experiments were male NMRI mice (weighing 27-44 g) obtained from Interfauna Ibérica (Spain). Mice were kept 5 per cage, under controlled environmental conditions (12 hr light/dark cycle and room temperature 22±1° C.). Food and tap water were allowed ad libitum and the experiments were all carried out during daylight hours.
(§3) Animals were administered 30 mg/kg or 3 mg/kg compounds of the invention via oral route (8 ml/kg; compound suspended in 0.5% carboxymethylcellulose (CMC) or solubilized in water) or vehicle (controls) using animal feeding stainless steel curve needles (Perfectum, U.S.A.). Fifteen minutes before sacrifice animal were anesthetized with pentobarbital 60 mg/kg administered intraperitoneally. A fragment of liver, left lung lobe and brain without cerebellum were removed and put in plastic vials containing membrane buffer (3 mM MgCl2, 1 mM EDTA, 50 mM Tris HCl pH 7.4). Tissues were stored at −30° C. until analysis.
(§4) Animals were always fasted overnight before administration of compounds except for time points of >18 h, where food was removed on the morning of day of administration and the compound was administered in the afternoon of the same day. Animals were then given water but nothing else.
(§5) Tissues were thawed on ice and were homogenized in 10 volumes of membrane buffer (3 mM MgCl2, 1 mM EDTA, 50 mM Tris HCl pH 7.4) with either Potter-Elvejhem (brains—8 strokes at 500 rpm) or Heidolph Diax (livers—2 strokes at position 5 for 20 sec with 30 sec pauses).
(§6) Total protein in tissues was determined with the BioRad Protein Assay (BioRad) using a standard curve of BSA (50-250 μg/ml).
(§7) Reaction mix (total volume of 200 μl) contained: […] (2 μM AEA+5 nM ^3H-AEA), 0.1% fatty acid free BSA, 15 μg (brain), 5 μg (liver) or 50 μg (lung) protein, in 1 mM EDTA, 10 mM Tris pH 7.6. After a […] pre-incubation period at 37° C., reaction was started by the addition of the substrate solution (cold AEA+radiolabelled AEA+BSA). Reaction was carried out for 10 min (brain and lung) or […] (liver) before termination by the addition of 400 μl activated charcoal suspension (8 g charcoal in 32 ml 0.5 M HCl in continuous agitation). After a […] incubation period at room temperature with agitation, charcoal was sedimented by centrifugation in microfuge (10 min at 13000 rpm). 200 μl of the supernatant were added to 800 μl Optiphase Supermix scintillation cocktail previously distributed in 24-well plates. Counts per minute (cpm) were determined in a MicrobetaTriLux scintillation counter.
(§8) In each assay blanks (without protein) were prepared.
(§9) The percentage of remaining enzymatic activity was calculated in respect to controls and after blank subtraction.

FAAH [3] = molecular target: T2, FAAH; assay: In vivo FAAH inhibition after oral dosing, remaining activity in brain homogenate (BRh, central nervous tissue); design: species or system NMRI mice; conditions: brain homogenate, 3 mg/kg, 8 h after dosing; low value = strong inhibitor
Procedure: as §1, §2, §3, §4, §5, §6, §7, §8, §9

| SMILES | In Vitro FAAH activity, 100 nM (FAAH [1]) | In Vitro 100 nM (FAAH activity, % of control) (FAAH [1]) | also measured |
| --- | --- | --- | --- |
| CN(C(=O)n1cnc(-c2cccc(-c3cc(Cl)ccc3F)c2)c1)C1CCCCC1 [Compound 259, 4-(5′-chloro-2′-fluorobiphenyl-3-yl)-N-cyclohexyl-N-methyl-1H-imidazole-1-carboxamide] | 33.7 % of control |  |  |
| CN(C(=O)n1cnc(-c2cccc(O)c2)c1)C1CCCC1 [Compound 262, N-cyclopentyl-4-(3-hydroxyphenyl)-N-methyl-1H-imidazole-1-carboxamide] | 7.5 % of control |  |  |
| CC(C)N(Cc1ccccc1)C(=O)n1cnc(-c2cccc(O)c2)c1 [Compound 265, N-benzyl-4-(3-hydroxyphenyl)-N-isopropyl-1H-imidazole-1-carboxamide] | 99.6 % of control |  |  |
| CN(C(=O)n1nnc2ccccc21)C1CCCC1 [Compound 266, N-cyclopentyl-N-methyl-1H-benzo[d][1,2,3]triazole-1-carboxamide] | 0.2 % of control |  |  |
| CC1(C)OCCN1C(=O)n1cnc(-c2ccccc2)c1Cl [Compound 268, (5-chloro-4-phenyl-1H-imidazol-1-yl)(2,2-dimethyloxazolidin-3-yl)methanone] | 104.1 % of control |  |  |
| CC1(C)COCN1C(=O)n1c(Cl)nc(-c2ccc(Cl)cc2)c1Cl [Compound 269, (2,5-dichloro-4-(4-chlorophenyl)-1H-imidazol-1-yl)(4,4-dimethyloxazolidin-3-yl)methanone] | 106.2 % of control |  |  |
| CCC1CN(C(=O)n2cnc(-c3ccccc3)c2)C(C)(C)O1 (centres unmarked) [Compound 270, (5-ethyl-2,2-dimethyloxazolidin-3-yl)(4-phenyl-1H-imidazol-1-yl)methanone] | 113.1 % of control |  |  |
| COc1ccccc1-c1cn(C(=O)N(C)C2CCCCC2)cn1 [Compound 271, N-cyclohexyl-4-(2-methoxyphenyl)-N-methyl-1H-imidazole-1-carboxamide] | 55.8 % of control |  |  |
| CN(C(=O)n1cnc(-c2ccc(Cl)c(Cl)c2)c1)C1CCCCC1 [Compound 274, N-cyclohexyl-4-(3,4-dichlorophenyl)-N-methyl-1H-imidazole-1-carboxamide] |  | 85 % of control |  |
| CN(C(=O)n1cnc(-c2ccc(Cl)cc2)c1)C1CCCCC1 [Compound 277, 4-(4-chlorophenyl)-N-cyclohexyl-N-methyl-1H-imidazole-1-carboxamide] |  | 72.1 % of control |  |
| CC1(C)COCN1C(=O)n1cnc(-c2ccc(Cl)cc2)c1Cl [Compound 280, (5-chloro-4-(4-chlorophenyl)-1H-imidazol-1-yl)(4,4-dimethyloxazolidin-3-yl)methanone] |  | 111.8 % of control |  |
| COc1ccc(-c2cn(C(=O)N(C)C3CCCC3)cn2)cc1OC [Compound 281, N-cyclopentyl-4-(3,4-dimethoxyphenyl)-N-methyl-1H-imidazole-1-carboxamide] |  | 25.5 % of control |  |
| CN(C(=O)n1cnc(-c2ccccc2)n1)C1CCCCC1 [Compound 283, N-cyclohexyl-N-methyl-3-phenyl-1H-1,2,4-triazole-1-carboxamide] |  | 75.1 % of control |  |
| CC1(C)COCN1C(=O)n1cnc(-c2ccccc2)n1 [Compound 285, (4,4-dimethyloxazolidin-3-yl)(3-phenyl-1H-1,2,4-triazol-1-yl)methanone] |  | 85.4 % of control |  |
| CN(C(=O)n1cnc(-c2cccc(OCc3ccccc3)c2)c1)C12CC3CC(CC(C3)C1)C2 [Compound 288, 4-[3-(benzyloxy)phenyl]-N-methyl-N-tricyclo[3.3.1.13,7]dec-1-yl-1H-imidazole-1-carboxamide] |  | 114.8 % of control |  |
| CN(C(=O)n1cnc(-c2cccc(-c3ccccc3)c2)c1)C12CC3CC(CC(C3)C1)C2 [Compound 290, 4-biphenyl-3-yl-N-methyl-N-tricyclo[3.3.1.13,7]dec-1-yl-1H-imidazole-1-carboxamide] |  |  | In Vivo LVh 3 mg·kg 8 h (remaining FAAH activity, % of control) (FAAH [2]): 112.4 % of control; In Vivo BRh 3 mg·kg 8 h (remaining FAAH activity, % of control) (FAAH [3]): 115 % of control |
| COc1ccc2nnn(C(=O)N3COCC3(C)C)c2c1 [Compound 293, (4,4-dimethyloxazolidin-3-yl)(6-methoxy-1H-benzo[d][1,2,3]triazol-1-yl)methanone] |  |  | In Vivo LVh 3 mg·kg 8 h (remaining FAAH activity, % of control) (FAAH [2]): 1.7 % of control; In Vivo BRh 3 mg·kg 8 h (remaining FAAH activity, % of control) (FAAH [3]): 3.5 % of control |
| CN(C(=O)n1cnc(-c2ccc(O)cc2)c1)C1CCCC1 [Compound 294, N-cyclopentyl-4-(4-hydroxyphenyl)-N-methyl-1H-imidazole-1-carboxamide] |  |  | In Vivo LVh 3 mg·kg 8 h (remaining FAAH activity, % of control) (FAAH [2]): 1.4 % of control; In Vivo BRh 3 mg·kg 8 h (remaining FAAH activity, % of control) (FAAH [3]): 1.4 % of control |
| CC1(C)OC(c2ccccc2)CN1C(=O)n1cnc(-c2ccccc2)c1 (centres unmarked) [Compound 298, (2,2-dimethyl-5-phenyloxazolidin-3-yl)(4-phenyl-1H-imidazol-1-yl)methanone] |  |  | In Vivo LVh 3 mg·kg 8 h (remaining FAAH activity, % of control) (FAAH [2]): 59.2 % of control; In Vivo BRh 3 mg·kg 8 h (remaining FAAH activity, % of control) (FAAH [3]): 74.4 % of control |
| O=C(N1COC(c2ccccc2)C1)n1cnc(-c2ccc(F)c(F)c2)c1 (centres unmarked) [Compound 308, (4-(3,4-difluorophenyl)-1H-imidazol-1-yl)(5-phenyloxazolidin-3-yl)methanone] |  | 2.5 % of control |  |
| COc1cc(-c2cn(C(=O)N(C)C3CCCC3)cn2)ccc1F [Compound 321, N-cyclopentyl-4-(4-fluoro-3-methoxyphenyl)-N-methyl-1H-imidazole-1-carboxamide] |  |  | In Vivo LVh 3 mg·kg 8 h (remaining FAAH activity, % of control) (FAAH [2]): 1.2 % of control; In Vivo BRh 3 mg·kg 8 h (remaining FAAH activity, % of control) (FAAH [3]): 1.4 % of control |
